In patent US20260109714A1, “PYRIMIDINE-FUSED RING COMPOUND, AND PREPARATION METHOD THEREFOR AND USE THEREOF” (GENFLEET THERAPEUTICS (SHANGHAI) INC., priority 2022, published 2026):

Experiments:
[1] = tested on: AGS human gastric cancer cell line with KRAS G12D mutation; test: Cell proliferation inhibition experiment, 3D CellTiter-Glo, AGS; assay type: cell-based; conditions: AGS cells, 3D spheroid, 5 days
Source text: (§1) AsPC-1 was purchased from ATCC, Article No.: CRL-1682; AGS was purchased from ATCC, Article No.: CRL-1739; RPMI1640 was purchased from Gibco, Article No.: 11875-093 2235123; F12K was purchased from Gibco, Article No.: 21127-022; FBS was purchased from Gibco, Article No.: 10099-141C; the trypsin (containing EDTA) was purchased from Gibco, Article No.: 25200-072; CellTiter Glo-3D was purchased from Progema, Article No.: G9683; the 384-well spheroid plate was purchased from Corning, Article No.: 3830; the white-bottom opaque 384-well plate was purchased from Corning, Article No.: 3570; the cell counter was purchased from CHEMOMETEC, model: NC-200; the microplate reader was purchased from PerkinElmer, model: Envison;
(§2) AsPC-1, an endogenous human pancreatic cancer cell AsPC-1 with KRAS^G12D mutation, was cultured in RPMI-1640 medium containing 10% FBS. AGS, a human gastric cancer cell line with KRAS^G12D mutation, was cultured in F-12K medium containing 10% FBS. Cells in logarithmic growth period were digested with trypsin (containing EDTA), collected and counted. 800 AsPC-1 cells/well or 400 […] were inoculated in a 384-well spheroid plate, and cultured overnight in an incubator with 5% CO2 to establish a 3D cell model. 1000× compound stock solutions with gradient concentrations of 3.16 times were prepared with DMSO, and 100-fold diluted to 10× compound stock solutions with the culture medium. The 10× compound stock solution was added to each cell culture well on the second day after cell inoculation, to give a final concentration of 1× and DMSO content of 0.1%. DMSO was used as the control, and the culture medium was used as the blank. After the compound was added, the cells were cultured for 5 days. 30 μl CellTiter-Glo working solution was added to each well, and mixed uniformly. The cells were incubated for 30 min, and allowed to stand at room temperature for 30 min. 40 μl of the mixture was transferred to a white-bottom opaque 384-well plate, and the luminescence was read on a microplate reader. The inhibition rate on cell proliferation was calculated by a formula: IR (%)=(RLU of control−RLU of compound)/(RLU of control−RLU of blank)×100%. The gradient concentrations of the compound and the corresponding inhibition rates were fitted by using XLFit four-parameter method, and the IC50 value was calculated. […] The results of some exemplary compounds are shown in Table 2 below (—means not tested).

AGS p-ERK = test: Cell assay for p-ERK (HTRF, Advance ERK phospho-T202/Y204 kit); assay type: cell-based, human; conditions: AGS cells (KRAS G12D), 3 hrs with compound, inhibition of p-ERK level
Method: AGS was purchased from ATCC, Article No.: CRL-1739; F12K was purchased from Gibco, Article No.: 21127-022; FBS was purchased from Gibco, Article No.: 10099-141C; the trypsin (containing EDTA) was purchased from Gibco, Article No.: 25200-072; DMSO was purchased from VWRAMRESCO, Article No.: 0231-500ML; the 96-well cell culture plate was purchased from Corning, Article No.: 3599; the white-bottom opaque 96-well plate was purchased from Cisbio, Article No.: 66PL96025; Advance ERK phospho-T202/Y204 kit was purchased from Cisbio, Article No.: 64AERPEH; the cell counter was purchased from CHEMOMETEC, model: NC-200; the microplate reader was purchased from PerkinElmer, model: Envison.
AGS, an endogenous human gastric adenocarcinoma cell line with KRAS^G12D mutation, was cultured in F12K+10% FBS medium. On the first day of the experiment, cells in logarithmic growth period were digested with trypsin (containing EDTA), collected and counted, and about 20,000 cells/well were inoculated in a 96-well cell culture plate and cultured overnight in an incubator with 5% CO2. 1000× compound stock solutions with gradient concentrations of 3.16 times were prepared with DMSO, and 200-fold diluted to 5× compound stock solutions with the above culture medium. The 5× compound stock solution was added to each cell culture well on the second day after cell inoculation, to give a final concentration of 1× and DMSO content of 0.1%. DMSO was used as experimental control. After adding the compound, the cells were continuously cultured for 3 hrs. Then, the culture medium in the well was removed, and 50 μl/well of cell lysis buffer (from Advanced ERK phospho-T202/Y204 kit, the same hereinafter) was added, and mixed uniformly. The cells were cultured for 30 min. Then 16 μl of the mixture was transferred to a white-bottom opaque 96-well plate, and 16 μl of the cell lysis buffer was added to an additional well and used as a blank. After that, 4 μl of p-ERK HTRF antibody mixed solution (from Advanced ERK Phos Pho-T202/Y204 Kit) was added to each well. After incubation for 4 hrs, the fluorescence value (RLU) of HTRF was read on a microplate reader. The inhibition rate of the compound on p-ERK level was calculated by the formula IR (%)=(RLU of control−RLU of compound)/(RLU of control−RLU of blank)×100%. The compound concentration and the corresponding inhibition rate on p-ERK level in the cells were fitted by using Prism 8 four-parameter method, and the IC50 value was calculated.

[2] = tested on: AsPC-1 human pancreatic cancer cell with KRAS G12D mutation; test: Cell proliferation inhibition experiment, 3D CellTiter-Glo, AsPC-1; assay type: cell-based; conditions: AsPC-1 cells, 3D spheroid, 5 days
Source text: as §1, §2

IC50 [1] | IC50 (AGS p-ERK) | IC50 [2] | Compound | IC50 ([1]; Homo sapiens, 120 h) | IC50 (AGS p-ERK; Homo sapiens) | IC50 ([2]; Homo sapiens, ASPC1, 120 h)
– | – | – | Cc1cc(-c2nc3c4c(nc(OCC5(CN6CCOCC6)CC5)nc4c2F)N2C[C@H]4CC[C@H](N4)C2[C@H](C)O3)c(C)c(N)c1C1CC1 (stereo partly drawn) [Z716] | 48.6 nM | 81.8 nM | 89.2 nM
34 nM | 15.3 nM | 44.2 nM | C[C@@H]1Oc2nc(-c3cc(N)cc4cccc(Cl)c34)c(F)c3nc(OC[C@]45CCCN4CC(F)(F)C5)nc(c23)N2C[C@H]3CC[C@H](N3)[C@@H]12 [Z737, 5-chloro-4-((5S,5aS,6S,9R)-12-(((R)-2,2-difluorotetrahydro-1H-pyrrolizin-7a(5H)-yl)methoxy)-1-fluoro-5-methyl-5a,6,7,8,9,10-hexahydro-5H-4-oxa-3,10a,11,13,14-pentaaza-6,9-methanonaphtho[1,8-ab]hepten-2-yl)naphthalen-2-amine] | – | – | –
– | – | – | C#Cc1cccc2cc(N)cc(-c3nc4c5c(nc(OCC67CC(F)(F)CN6CCC7=C)nc5c3F)N3C[C@H]5CC[C@H](N5)[C@H]3[C@H](C)O4)c12 (stereo partly drawn) [Z738] | 44.2 nM | 12.7 nM | 29.9 nM
– | – | – | C#Cc1c(F)ccc2cc(N)cc(-c3nc4c5c(nc(OC[C@]67CCCN6CC(F)(F)C7)nc5c3F)N3C[C@H]5CC[C@H](N5)[C@H]3[C@H](C)O4)c12 [Z739, 4-((5S,5aS,6S,9R)-12-(((R)-2,2-difluorotetrahydro-1H-pyrrolizin-7a(5H)-yl)methoxy)-1-fluoro-5-methyl-5a,6,7,8,9,10-hexahydro-5H-4-oxa-3,10a,11,13,14-pentaaza-6,9-methanonaphtho[1,8-ab]hepten-2-yl)-5-ethynylnaphthalen-2-amine] | 11 nM | 2.63 nM | 6.16 nM
– | – | – | C[C@@H]1Oc2nc(-c3cc(N)cc4ccc(F)c(F)c34)c(F)c3nc(OC[C@]45CCCN4CC(F)(F)C5)nc(c23)N2C[C@H]3CC[C@H](N3)[C@@H]12 [Z740, 4-((5S,5aS,6S,9R)-12-(((R)-2,2-difluorotetrahydro-1H-pyrrolizin-7a(5H)-yl)methoxy)-1-fluoro-5-methyl-5a,6,7,8,9,10-hexahydro-5H-4-oxa-3,10a,11,13,14-pentaaza-6,9-methanonaphtho[1,8-ab]heptan-2-yl)-5,6-difluoronaphthalen-2-amine] | 18 nM | 6.08 nM | 26 nM
– | – | – | C#Cc1cccc2cc(N)cc(-c3nc4c5c(nc(OCC67CCCN6CCC7(F)F)nc5c3F)N3C[C@H]5CC[C@H](N5)[C@H]3[C@H](C)O4)c12 (stereo partly drawn) [Z741, 4-((5S,5aS,6S,9R)-12-((1,1-difluorotetrahydro-1H-pyrrolizin-7a(5H)-yl)methoxy)-1-fluoro-5-methyl-5a,6,7,8,9,10-hexahydro-5H-4-oxa-3,10a,11,13,14-pentaaza-6,9-methanonaphtho[1,8-ab]hepten-2-yl)-5-ethynylnaphthalen-2-amine] | 19.2 nM | 4.06 nM | 10.1 nM
– | – | – | C#Cc1cccc2cc(N)cc(-c3nc4c5c(nc(OCC(C)C(O)C(F)F)nc5c3F)N3C[C@H]5CC[C@H](N5)[C@H]3[C@H](C)O4)c12 (stereo partly drawn) [Z742] | 156 nM | 52 nM | 312 nM
– | – | – | C[C@@H]1Oc2nc(-c3cc(N)cc(Cl)c3C(F)(F)F)c(F)c3nc(OC[C@]45CCCN4CC(F)(F)C5)nc(c23)N2C[C@H]3CC[C@H](N3)[C@@H]12 [Z743, 3-chloro-5-((5S,5aS,6S,9R)-12-(((R)-2,2-difluorotetrahydro-1H-pyrrolizin-7a(5H)-yl)methoxy)-1-fluoro-5-methyl-5a,6,7,8,9,10-hexahydro-5H-4-oxa-3,10a,11,13,14-pentaaza-6,9-methanonaphtho[1,8-ab]hepten-2-yl)-4-(trifluoromethyl) aniline] | 1.95 nM | 0.84 nM | 2.16 nM
– | – | – | C#Cc1cccc2cc(N)cc(-c3nc4c5c(nc(OCC6(CN7CCC(=C(F)F)C7)CC6)nc5c3F)N3C[C@H]5CC[C@H](N5)[C@H]3[C@H](C)O4)c12 [Z744] | 2.86 nM | 0.51 nM | 1.99 nM
